Test: Exposure to 75% Relative Humidity atmosphere (re-weighing and infrared spectrum)
Format: physicochemical
Conditions: sealed container, 75% Relative Humidity (saturated sodium chloride solution), 21° C., 96 hours
Description: The sample was re-weighed and the infrared spectrum of the product recorded.

- Infrared spectrum after humidity exposure: no change
- Sample weight after humidity exposure: no weight gain
Compound: CN(CCOc1ccc(CC2SC(=O)NC2=O)cc1)c1ccccn1.I (centres unmarked) [Hydriodide, 5-[4-[2-(N-Methyl-N-(2-pyridyl)amino)ethoxy]benzyl]thiazolidine-2,4-dione Hydriodide]

— patent publication US20040024027A1 (priority 2000, published 2004)
